Test results reported in US10052306B2 (LUC THERAPEUTICS, INC., priority 2013, dated 2018).
Where two headings read alike, the source gives them in different places.

Columns and labels:
NR1/NR2B [1] = target: NR1/NR2B (Homo sapiens (Human), UniProt Q05586+Q13224); test: Cell assay: FDSS Ca2+ influx inhibition in HEK293 cells expressing NR1/NR2B;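 further: Fluo-8 Ca2+ signal read on Hamamatsu FDSS 6000 after glutamate, glycine and Ca2+ challenge following 10 min compound preincubation, end/baseline fluorescence ratio compared with MK801 control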
NR1/NR2B (Homo sapiens (Human), UniProt Q05586+Q13224), sequence (Q13224 27-1484, other chains not shown): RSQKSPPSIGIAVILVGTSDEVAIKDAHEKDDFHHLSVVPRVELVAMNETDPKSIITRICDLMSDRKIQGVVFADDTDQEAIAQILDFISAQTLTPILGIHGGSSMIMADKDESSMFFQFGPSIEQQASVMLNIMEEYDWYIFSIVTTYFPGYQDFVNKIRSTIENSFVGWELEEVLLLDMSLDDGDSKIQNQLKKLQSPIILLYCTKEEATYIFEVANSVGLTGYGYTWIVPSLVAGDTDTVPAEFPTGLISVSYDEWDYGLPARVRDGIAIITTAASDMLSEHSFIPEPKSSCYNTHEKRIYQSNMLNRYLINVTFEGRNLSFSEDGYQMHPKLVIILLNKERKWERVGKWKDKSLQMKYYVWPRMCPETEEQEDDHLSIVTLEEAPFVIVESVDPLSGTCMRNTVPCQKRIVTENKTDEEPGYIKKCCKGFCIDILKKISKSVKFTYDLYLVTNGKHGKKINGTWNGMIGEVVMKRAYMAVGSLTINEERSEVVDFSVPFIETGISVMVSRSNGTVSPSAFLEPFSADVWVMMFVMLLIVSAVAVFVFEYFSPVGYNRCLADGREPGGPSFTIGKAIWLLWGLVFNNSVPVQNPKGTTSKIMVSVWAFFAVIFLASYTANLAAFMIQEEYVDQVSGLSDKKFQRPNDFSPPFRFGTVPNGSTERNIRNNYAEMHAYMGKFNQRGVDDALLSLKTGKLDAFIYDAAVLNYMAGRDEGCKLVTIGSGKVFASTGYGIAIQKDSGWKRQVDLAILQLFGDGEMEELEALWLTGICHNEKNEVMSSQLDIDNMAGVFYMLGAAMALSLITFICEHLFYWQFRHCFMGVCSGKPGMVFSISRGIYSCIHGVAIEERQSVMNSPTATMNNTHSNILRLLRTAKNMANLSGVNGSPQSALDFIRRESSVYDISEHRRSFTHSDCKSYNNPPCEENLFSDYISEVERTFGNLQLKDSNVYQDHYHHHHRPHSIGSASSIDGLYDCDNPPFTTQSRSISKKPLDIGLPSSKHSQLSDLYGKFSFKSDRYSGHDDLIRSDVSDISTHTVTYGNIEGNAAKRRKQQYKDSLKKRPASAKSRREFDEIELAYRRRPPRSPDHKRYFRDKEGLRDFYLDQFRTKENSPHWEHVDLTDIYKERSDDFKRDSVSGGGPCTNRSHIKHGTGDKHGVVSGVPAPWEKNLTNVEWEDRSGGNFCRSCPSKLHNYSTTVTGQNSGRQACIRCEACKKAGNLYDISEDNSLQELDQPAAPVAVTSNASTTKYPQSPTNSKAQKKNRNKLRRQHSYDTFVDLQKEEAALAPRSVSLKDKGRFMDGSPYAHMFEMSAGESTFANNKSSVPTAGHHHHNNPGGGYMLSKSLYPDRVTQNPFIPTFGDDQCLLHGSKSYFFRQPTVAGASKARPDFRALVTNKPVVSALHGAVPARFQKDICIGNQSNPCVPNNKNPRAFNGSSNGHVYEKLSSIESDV
Experimental: (§1) Cell Culture and plating: HEK293 cells expressing NR1/NR2B (Chantest, Cleveland, Ohio) were grown to 70-80% confluency as an adherent monolayer in standard tissue culture flasks at 37° C., 5% CO2 per supplier's instructions. NR2B expression was induced by incubation with 0.3-0.4 μg/ml tetracycline in the presence of 4 mM ARL-15896 for 18-24 hours under the same growth conditions, then transferred to 30° C. for another 3-5 hours.
(§2) After induction, cell culture medium was removed and cells were rinsed once with Ca^2+ and Mg^2+-free Dulbecco's phosphate buffered saline. Cells were then removed from the flask using TrypLE™ Express (Life Technologies) according to the manufacturer's instructions and collected to 50 ml centrifuge tubes. Following two washes in Ca^2+/Mg^2+-free HBSS with 20 mM HEPES (HHnoCa), cells were counted and viability assessed using trypan blue. To load cells with Ca^2+-sensitive dye, they were resuspended in fluo-8 plus Component B (AAT Bioquest Products) diluted in HHnoCa and incubated 15 minutes at 37° C., followed by 30 minutes at room temp (in dark). Cells were then washed and resuspended in HHnoCa to remove extracellular dye and plated in 384-well plates (Falcon, uncoated) at 20,000-30,000 cells/well in a final volume of 25 μl/well.
(§3) FDSS Assay: To each well of the plate, 10 μL test compound, control (MK801) or HHnoCa buffer was added to a final concentration of 10 μM with a final concentration of DMSO of 0.1%. Following 10 minutes pre-incubation in the dark, plates are loaded onto the Hamamatsu FDSS 6000. After collecting baseline fluorescence images, 3 μM glutamate, 3 glycine, and 1 mM Ca^2+ in HHnoCa buffer is added to each well, and Ca^2+ is recorded for 3 minutes. Data were processed by computing ratio of fluorescence at the end of data collection to baseline fluorescence to assess degree of Ca′ influx inhibition relative to that observed in MK801.

NR1/NR2B [2] = target: NR1/NR2B (Homo sapiens (Human), UniProt Q13224); test: as above
NR1/NR2B (Homo sapiens (Human), UniProt Q13224), sequence (Q13224 27-1484, other chains not shown): as above
Experimental: as §1, §2, §3

[3] = Binned Activity, HEK293 cells expressing NR1/NR2B, Ca2+ influx, binned NR2B NAM IC50
[4] = read-out: NR2B NAM IC50, HEK293 cells expressing NR1/NR2B, Ca2+ influx
[5] = read-out: Binned Activity, HEK293 cells expressing NR1/NR2B, Ca2+ influx, binned NR2B NAM IC50
[6] = NR2B NAM IC50, HEK293 cells expressing NR1/NR2B, Ca2+ influx

Structure (SMILES)	IC50 (NR1/NR2B [1]; [3])	IC50 (NR1/NR2B [2]; [4])	also measured
O=C(Cc1ccc(O)cc1)CN1C[C@@H]2C[C@@](O)(Cc3ccccc3)C[C@@H]2C1 [Example 145, 1-((3aR,5r,6aS)-5-benzyl-5-hydroxyhexahydrocyclo-penta[c]pyrrol-2(1H)-yl)-3-(4-hydroxyphenyl)propan-2-one]	> 10 µM	10 µM	
O=C(CN1C[C@@H]2C[C@@](O)(Cc3ccc(F)cc3)C[C@@H]2C1)c1ccc(O)cc1 [Example 134, 2-((3aR,5r,6aS)-5-(4-fluorobenzyl)-5-hydroxyhexahydrocyclo-penta[c]pyrrol-2(1H)-yl)-1-(4-hydroxyphenyl)ethanone]	< 0.1 µM	0.0432 µM	
Cc1ccc(NC(=O)N2C[C@@H]3C[C@@](O)(c4ccccc4)C[C@@H]3C2)cc1 [Example 3, 5-hydroxy-N-(4-methylphenyl)-5-phenyl-octahydrocyclopenta[c] pyrrole-2-carboxamide]	> 10 µM		IC50 (NR1/NR2B [2]; read-out: NR2B NAM IC50): 10 µM
O[C@@]1(c2ccc(F)cc2)C[C@H]2CN(c3ccccn3)C[C@H]2C1 [Example 80, 5-(4-fluorophenyl)-2-(pyridin-2-yl)-octahydrocyclopenta[c] pyrrol-5-ol]	> 10 µM	10 µM	
Cc1ccccc1[C@]1(O)C[C@H]2CN(C(=O)Nc3ccccc3)C[C@H]2C1 [Example 30, 5-hydroxy-5-(2-methylphenyl)-N-phenyl-octahydrocyclopenta[c] pyrrole-2-carboxamide]			IC50 (NR1/NR2B [1]; Binned Activity): > 10 µM; IC50 (NR1/NR2B [2]; read-out: NR2B NAM IC50): 10 µM
Oc1ccc([C@H](O)CN2C[C@@H]3C[C@@](O)(Cc4ccccc4)C[C@@H]3C2)cc1 [Example 143, (3aR,5S,6aS)-5-benzyl-2-((S)-2-hydroxy-2-(4-hydroxyphenyl)ethyl)octa-hydrocyclopenta[c]pyrrol-5-ol]			IC50 (NR1/NR2B [2]; [5]): < 0.1 µM
COc1ccccc1CNC(=O)N1C[C@H]2C[C@@H](c3ccccc3)C[C@H]2C1 [Example 112, N-[(2-methoxyphenyl)methyl]-5-phenyl-octahydrocyclopenta[c] pyrrole-2-carboxamide]	> 10 µM	10 µM	
COc1ccc(C)cc1NC(=O)N1C[C@@H]2C[C@@](O)(Cc3ccccc3)C[C@@H]2C1 [Example 124, (3aR,5r,6aS)-5-benzyl-5-hydroxy-N-(2-methoxy-5-methylphenyl)hexahydro-cyclopenta[c]pyrrole-2(1H)-carboxamide]	> 10 µM	10 µM	
O=C(CN1C[C@@H]2C[C@@](O)(Cc3ccccc3)C[C@@H]2C1)c1ncc(O)cn1 [Example 202, 2-[(3aR,5R,6aS)-5-benzyl-5-hydroxy-octahydrocyclopenta[c]pyrrol-2-yl]-1-(5-hydroxypyrimidin-2-yl)ethan-1-one]	> 10 µM	10 µM	
Cc1cccc(NC(=O)N2C[C@@H]3C[C@@](O)(Cc4ccccc4)C[C@@H]3C2)c1 [Example 129, (3aR,5r,6aS)-5-benzyl-5-hydroxy-N-(m-tolyl)hexahydrocyclo-penta[c]pyrrole-2(1H)-carboxamide]	> 10 µM	10 µM	
O=C(CN1CC2CC(Cc3ccccc3)CC2C1)c1ccc(O)c(F)c1 (stereo not drawn) [Example 299, 2-{5-benzyl-octahydrocyclopenta[c]pyrrol-2-yl}-1-(3-fluoro-4-hydroxyphenyl) ethan-1-one]			IC50 (NR1/NR2B [2]; read-out: Binned Activity): < 0.1 µM; IC50 (NR1/NR2B [2]; read-out: NR2B NAM IC50): 0.0781 µM
O=C(CN1C[C@@H]2C[C@@](O)(Cc3ccccc3)C[C@@H]2C1)c1ccc(-c2ccc(O)cc2)cc1 [Example 257, 2-((3aR,5r,6aS)-5-benzyl-5-hydroxyhexahydrocyclo-penta[c]pyrrol-2(1H)-yl)-1-(4′-hydroxy-[1,1′-biphenyl]-4-yl)ethanone]	> 10 µM	10 µM	
O=C(CN1CC2CC(O)(c3ccccc3)CC2C1)c1ccccc1 (stereo not drawn) [Example 57, 2-(5-hydroxy-5-phenylhexahydrocyclo-penta[c]pyrrol-2(1H)-yl)-1-phenylethanone]		10 µM	IC50 (NR1/NR2B [2]; [5]): > 10 µM
O=C(CN1CC2CC(Cc3ccccc3)CC2C1)c1ccc(O)cn1 (stereo not drawn) [Example 297, 2-{5-benzyl-octahydrocyclopenta[c]pyrrol-2-yl}-1-(5-hydroxypyridin-2-yl)ethan-1-one]		0.792 µM	IC50 (NR1/NR2B [2]; [5]): 0.1 to 1 µM
COc1cccc([C@]2(O)C[C@H]3CN(C(=O)Nc4ccc(C)cc4)C[C@H]3C2)c1 [Example 14]	> 10 µM		IC50 (NR1/NR2B [1]; [6]): ≥ 10 µM
COc1cccc(NC(=O)N2C[C@@H]3C[C@@](O)(c4ccc(C(C)(C)C)cc4)C[C@@H]3C2)c1 [Example 51]	> 10 µM		IC50 (NR1/NR2B [1]; [6]): ≥ 10 µM
Oc1ccc(C(O)CN2C[C@@H]3C[C@@](O)(Cc4ccc(F)c(F)c4)C[C@@H]3C2)cc1 (mixture of isomers) [Example 253, rac-(3aR,5r,6aS)-5-(3,4-difluorobenzyl)-2-(2-hydroxy-2-(4-hydroxyphenyl)ethyl) octahydrocyclopenta[c] pyrrol-5-ol]			IC50 (NR1/NR2B [1]; [6]): 0.0315 µM

Second part, led by results:

IC50 (NR1/NR2B [1]; [3])	IC50 (NR1/NR2B [2]; [4])	Structure (SMILES)	also measured
0.1 to 1 µM	0.324 µM	Oc1ccc([C@H](O)CN2C[C@@H]3C[C@](F)(Cc4ccccc4)C[C@@H]3C2)cc1 [Example 315, 4-((S)-2-((3aR,5R,6aS)-5-benzyl-5-fluoro-hexahydrocyclopen-ta[c]pyrrol-2(1H)-yl)-1-hydroxyethyl)phenol]	
< 0.1 µM	0.0517 µM	O=C(CN1C[C@H]2CC(Cc3ccccc3)C[C@H]2C1)c1ccc(O)cc1 (stereo partly drawn) [Example 295, 2-((3aR,6aS)-5-benzylhexahydrocyclo-penta[c]pyrrol-2(1H)-yl)-1-(4-hydroxyphenyl)ethanone]	
	0.426 µM	O=C(CN1CC2CC(CCc3ccccc3)CC2C1)c1ccc(O)cc1 (stereo not drawn) [Example 323, 1-(4-hydroxyphenyl)-2-(5-phenethyl-hexahydrocyclo-penta[c]pyrrol-2(1H)-yl)ethanone]	IC50 (NR1/NR2B [2]; [5]): 0.1 to 1 µM
> 10 µM	10 µM	O=C(CN1C[C@@H]2C[C@@](O)(Cc3ccccc3)C[C@@H]2C1)c1cccc(-c2cccc(F)c2)c1 [Example 271, 2-((3aR,5r,6aS)-5-benzyl-5-hydroxyhexahydrocyclo-penta[c]pyrrol-2(1H)-yl)-1-(3′-fluoro-[1,1′-biphenyl]-3-yl)ethanone]	
> 10 µM	10 µM	O=C(CN1C[C@@H]2CN(Cc3ccccc3)C[C@@H]2C1)c1ccc(O)c(F)c1 [Example 340, 2-(5-benzylhexahydropyrrolo [3,4-c]pyrrol-2(1H)-yl)-1-(3-fluoro-4-hydroxyphenyl)ethanone]	
> 10 µM	10 µM	O=C(CN1C[C@@H]2C[C@@](O)(Cc3ccccc3)C[C@@H]2C1)c1cccc(-c2ccc(O)cc2)c1 [Example 275, 2-((3aR,5r,6aS)-5-benzyl-5-hydroxyhexahydrocyclo-penta[c]pyrrol-2(1H)-yl)-1-(4′-hydroxy-[1,1′-biphenyl]-3-yl)ethanone]	
	10 µM	OC(CN1C[C@@H]2CC(O)(Cc3ccccc3)C[C@@H]2C1)c1ccc(F)cc1 (mixture of isomers) [Example 289, rac-(3aR,5r,6aS)-5-benzyl-2-(2-(4-fluorophenyl)-2-hydroxyethyl)octahydro-cyclopenta[c]pyrrol-5-ol]	IC50 (NR1/NR2B [2]; [5]): > 10 µM
> 10 µM		OC(CN1C[C@@H]2C[C@@](O)(Cc3ccccc3)C[C@@H]2C1)c1cccc(C(F)(F)F)c1 (mixture of isomers) [Example 288, rac-(3aR,5r,6aS)-benzyl-2-(2-hydroxy-2-(3-(trifluoromethyl)phenyl)ethyl)octahydrocyclo-penta[c]pyrrol-5-ol]	IC50 (NR1/NR2B [1]; [6]): ≥ 10 µM
